Test results: the supplement of paper PMC10307832

Columns and labels:
Assay in all cases: relative viability (nuclei count vs DMSO), 5 days (fraction); higher = more cells survive
[1] = tested on: A549
Method in brief: (§1)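 Lung cancer cell lines were pin-tool dosed in 1536-well plates on the day after seeding, with either a lone drug or a fixed anchor-drug dose plus five library-drug doses (not always all listed) in √10 steps. Nuclei were counted on 4× images after 5 days. Relative viability is the ratio of treated-well to vehicle-well nuclei counts, with each value a median of duplicate plates.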

[2] = tested on: NCI-H1299
Method in brief: as §1

[3] = tested on: NCI-H1651
Method in brief: as §1

[4] = tested on: EBC-1
Method in brief: as §1

[5] = tested on: SK-MES-1
Method in brief: as §1

[6] = tested on: NCI-H1703
Method in brief: as §1

[7] = tested on: IA-LM
Method in brief: as §1

[8] = tested on: Calu-6
Method in brief: as §1

Q: With O=C(O)c1ccc(-c2c[nH]c3ncc(-c4ccccc4)cc23)cc1C1CCCC1 + CS(=O)(=O)CCNCc1ccc(-c2ccc3ncnc(Nc4ccc(OCc5cccc(F)c5)c(Cl)c4)c3c2)o1 [Lapatinib] (partner 2 µM) as the molecule, how does the relative viability ([1]; first compound 0.04 µM) read?
A: 1.01

Q: And the relative viability ([1]; first compound 0.1265 µM)?
A: 0.985

Q: And the relative viability ([1]; first compound 0.4 µM)?
A: 0.899

Q: What about the relative viability ([1]; first compound 1.265 µM) of the same molecule?
A: 0.837

Q: And the relative viability ([2]; first compound 0.04 µM)?
A: 0.945

Q: And the relative viability ([2]; first compound 0.1265 µM)?
A: 1

Q: And the relative viability ([2]; first compound 0.4 µM)?
A: 0.938

Q: And the relative viability ([2]; first compound 1.265 µM)?
A: 0.829

Q: What about the relative viability ([3]; first compound 0.04 µM) of the same molecule?
A: 0.856

Q: What about the relative viability ([3]; first compound 0.1265 µM) of the same molecule?
A: 0.867

Q: And the relative viability ([3]; first compound 0.4 µM)?
A: 0.826

Q: What about the relative viability ([3]; first compound 1.265 µM) of the same molecule?
A: 0.472

Q: And the relative viability ([4]; first compound 0.04 µM)?
A: 0.224

Q: What about the relative viability ([4]; first compound 0.1265 µM) of the same molecule?
A: 0.215

Q: And the relative viability ([4]; first compound 0.4 µM)?
A: 0.227

Q: What about the relative viability ([4]; first compound 1.265 µM) of the same molecule?
A: 0.242

Q: What about the relative viability ([5]; first compound 0.04 µM) of the same molecule?
A: 0.443

Q: What about the relative viability ([5]; first compound 0.1265 µM) of the same molecule?
A: 0.495

Q: And the relative viability ([5]; first compound 0.4 µM)?
A: 0.464

Q: And the relative viability ([5]; first compound 1.265 µM)?
A: 0.412

Q: And the relative viability ([6]; first compound 0.04 µM)?
A: 1.11

Q: What about the relative viability ([6]; first compound 0.1265 µM) of the same molecule?
A: 1.44

Q: And the relative viability ([6]; first compound 0.4 µM)?
A: 1.06

Q: And the relative viability ([6]; first compound 1.265 µM)?
A: 0.929

Q: And the relative viability ([7]; first compound 0.04 µM)?
A: 0.913

Q: What about the relative viability ([7]; first compound 0.1265 µM) of the same molecule?
A: 1.03

Q: What about the relative viability ([7]; first compound 0.4 µM) of the same molecule?
A: 0.974

Q: What about the relative viability ([7]; first compound 1.265 µM) of the same molecule?
A: 0.782

Q: What about the relative viability ([8]; first compound 0.04 µM) of the same molecule?
A: 1.02

Q: And the relative viability ([8]; first compound 0.1265 µM)?
A: 1.09

Q: And the relative viability ([8]; first compound 0.4 µM)?
A: 0.984

Q: What about the relative viability ([8]; first compound 1.265 µM) of the same molecule?
A: 0.78

Q: Which relative viability ([1]; first compound 0.08 µM) does the source give for Oc1nc(-c2ccc(C(F)(F)F)cc2)nc2c1CSCC2 [XAV939] + Cc1nc(NC(=O)N2CCC[C@H]2C(N)=O)sc1-c1ccnc(C(C)(C)C(F)(F)F)c1 [Alpelisib] (partner 2 µM) here?
A: 0.877

Q: What about the relative viability ([1]; first compound 0.253 µM) of the same molecule?
A: 0.371

Q: And the relative viability ([1]; first compound 0.8 µM)?
A: 0.484

Q: And the relative viability ([1]; first compound 2.53 µM)?
A: 0.524

Q: What about the relative viability ([2]; first compound 0.08 µM) of the same molecule?
A: 1.08

Q: And the relative viability ([2]; first compound 0.253 µM)?
A: 1.04

Q: What about the relative viability ([2]; first compound 0.8 µM) of the same molecule?
A: 1.09

Q: And the relative viability ([2]; first compound 2.53 µM)?
A: 1.11

Q: What about the relative viability ([3]; first compound 0.08 µM) of the same molecule?
A: 0.979

Q: And the relative viability ([3]; first compound 0.253 µM)?
A: 0.841

Q: And the relative viability ([3]; first compound 0.8 µM)?
A: 0.978

Q: And the relative viability ([3]; first compound 2.53 µM)?
A: 0.891

Q: And the relative viability ([4]; first compound 0.08 µM)?
A: 0.874

Q: And the relative viability ([4]; first compound 0.253 µM)?
A: 0.71

Q: What about the relative viability ([4]; first compound 0.8 µM) of the same molecule?
A: 0.716

Q: And the relative viability ([4]; first compound 2.53 µM)?
A: 0.726

Q: And the relative viability ([5]; first compound 0.08 µM)?
A: 0.994

Q: What about the relative viability ([5]; first compound 0.253 µM) of the same molecule?
A: 0.912

Q: What about the relative viability ([5]; first compound 0.8 µM) of the same molecule?
A: 0.911

Q: And the relative viability ([5]; first compound 2.53 µM)?
A: 0.757

Q: And the relative viability ([6]; first compound 0.08 µM)?
A: 0.397

Q: What about the relative viability ([6]; first compound 0.253 µM) of the same molecule?
A: 0.301

Q: What about the relative viability ([6]; first compound 0.8 µM) of the same molecule?
A: 0.307

Q: And the relative viability ([6]; first compound 2.53 µM)?
A: 0.324

Q: And the relative viability ([7]; first compound 0.08 µM)?
A: 0.77

Q: And the relative viability ([7]; first compound 0.253 µM)?
A: 0.693

Q: And the relative viability ([7]; first compound 0.8 µM)?
A: 0.705

Q: What about the relative viability ([7]; first compound 2.53 µM) of the same molecule?
A: 0.557

Q: And the relative viability ([8]; first compound 0.08 µM)?
A: 1.08

Q: And the relative viability ([8]; first compound 0.253 µM)?
A: 0.887

Q: And the relative viability ([8]; first compound 0.8 µM)?
A: 0.919

Q: What about the relative viability ([8]; first compound 2.53 µM) of the same molecule?
A: 0.948

Q: Oc1nc(-c2ccc(C(F)(F)F)cc2)nc2c1CSCC2 [XAV939] + CS(=O)(=O)CCNCc1ccc(-c2ccc3ncnc(Nc4ccc(OCc5cccc(F)c5)c(Cl)c4)c3c2)o1 [Lapatinib] (partner 2 µM) was tested. Which relative viability ([1]; first compound 0.08 µM) did it give?
A: 1.1

Q: And the relative viability ([1]; first compound 0.253 µM)?
A: 0.985

Q: What about the relative viability ([1]; first compound 0.8 µM) of the same molecule?
A: 0.897

Q: What about the relative viability ([1]; first compound 2.53 µM) of the same molecule?
A: 0.765

Q: And the relative viability ([2]; first compound 0.08 µM)?
A: 0.989

Q: And the relative viability ([2]; first compound 0.253 µM)?
A: 1.01

Q: What about the relative viability ([2]; first compound 0.8 µM) of the same molecule?
A: 0.962

Q: What about the relative viability ([2]; first compound 2.53 µM) of the same molecule?
A: 0.97

Q: And the relative viability ([3]; first compound 0.08 µM)?
A: 0.822

Q: What about the relative viability ([3]; first compound 0.253 µM) of the same molecule?
A: 0.758

Q: And the relative viability ([3]; first compound 0.8 µM)?
A: 0.904

Q: What about the relative viability ([3]; first compound 2.53 µM) of the same molecule?
A: 0.857

Q: And the relative viability ([4]; first compound 0.08 µM)?
A: 0.206

Q: What about the relative viability ([4]; first compound 0.253 µM) of the same molecule?
A: 0.205

Q: What about the relative viability ([4]; first compound 0.8 µM) of the same molecule?
A: 0.218

Q: What about the relative viability ([4]; first compound 2.53 µM) of the same molecule?
A: 0.209

Q: What about the relative viability ([5]; first compound 0.08 µM) of the same molecule?
A: 0.499

Q: And the relative viability ([5]; first compound 0.253 µM)?
A: 0.389

Q: And the relative viability ([5]; first compound 0.8 µM)?
A: 0.424

Q: What about the relative viability ([5]; first compound 2.53 µM) of the same molecule?
A: 0.406

Q: And the relative viability ([6]; first compound 0.08 µM)?
A: 1.21

Q: What about the relative viability ([6]; first compound 0.253 µM) of the same molecule?
A: 1.08

Q: What about the relative viability ([6]; first compound 0.8 µM) of the same molecule?
A: 1.15

Q: What about the relative viability ([6]; first compound 2.53 µM) of the same molecule?
A: 0.959

Q: And the relative viability ([7]; first compound 0.08 µM)?
A: 0.901

Q: And the relative viability ([7]; first compound 0.253 µM)?
A: 0.64

Q: And the relative viability ([7]; first compound 0.8 µM)?
A: 0.687

Q: And the relative viability ([7]; first compound 2.53 µM)?
A: 0.483

Q: What about the relative viability ([8]; first compound 0.08 µM) of the same molecule?
A: 1.08

Q: What about the relative viability ([8]; first compound 0.253 µM) of the same molecule?
A: 0.945

Q: What about the relative viability ([8]; first compound 0.8 µM) of the same molecule?
A: 0.991

Q: And the relative viability ([8]; first compound 2.53 µM)?
A: 0.903
